In patent US9487515B2, “Compounds modulating c-fms and/or c-kit activity and uses therefor” (Plexxikon Inc., priority 2006, dated 2016):

Target: c-kit (Homo sapiens, UniProt P10721)
Experiment: c-kit assays of Examples 40 and 41 (AlphaScreen kinase assays at 10 and 100 μM ATP, 33P-ATP filter assay, M-07e SCF-stimulated proliferation and phosphorylation)

c-kit, sequence (P10721 with tags, fused parts or gaps): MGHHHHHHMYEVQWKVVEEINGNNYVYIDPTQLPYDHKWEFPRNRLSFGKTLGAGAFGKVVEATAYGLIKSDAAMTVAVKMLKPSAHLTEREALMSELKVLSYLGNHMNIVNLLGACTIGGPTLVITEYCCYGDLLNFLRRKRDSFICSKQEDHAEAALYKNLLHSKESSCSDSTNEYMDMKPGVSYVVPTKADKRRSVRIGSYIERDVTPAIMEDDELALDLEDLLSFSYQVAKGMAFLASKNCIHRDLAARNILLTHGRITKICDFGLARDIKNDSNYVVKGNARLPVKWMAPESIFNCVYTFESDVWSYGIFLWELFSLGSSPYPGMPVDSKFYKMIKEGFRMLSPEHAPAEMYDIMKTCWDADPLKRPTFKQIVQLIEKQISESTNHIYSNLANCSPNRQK

Row | IC50 [nM] | SMILES
1 | < 1000 | COc1ccc(CNc2ccc(Cc3c[nH]c4ncc(Cl)cc34)c(F)n2)cn1 [P-0379, [5-(5-Chloro-1H-pyrrolo[2,3-b]pyridin-3-ylmethyl)-6-fluoro-pyridin-2-yl]-(6-methoxy-pyridin-3-ylmethyl)-amine]
2 | < 1000 | Clc1ccc(CNc2ccc(Cc3c[nH]c4ncccc34)cn2)c(Cl)c1 [P-0342, (2,4-Dichloro-benzyl)-[5-(1H-pyrrolo[2,3-b]pyridin-3-ylmethyl)-pyridin-2-yl]-amine]
3 | < 1000 | Clc1cnc2[nH]cc(Cc3ccc(NCc4ccccc4Cl)nc3)c2c1 [P-0280, (2-Chloro-benzyl)-[5-(5-chloro-1H-pyrrolo[2,3-b]pyridin-3-ylmethyl)-pyridin-2-yl]-amine]
4 | < 1000 | Fc1nc(NCc2ccc(C(F)(F)F)nc2)ccc1Cc1c[nH]c2ncccc12 [P-0188, [6-Fluoro-5-(1H-pyrrolo[2,3-b]pyridin-3-ylmethyl)-pyridin-2-yl]-(6-trifluoromethyl-pyridin-3-ylmethyl)-amine]
5 | < 1000 | Fc1ccc(CNc2ccc(Cc3c[nH]c4ncccc34)cn2)c(Cl)c1 [P-0221, (2-Chloro-4-fluoro-benzyl)-[5-(1H-pyrrolo[2,3-b]pyridin-3-ylmethyl)-pyridin-2-yl]-amine]
6 | < 1000 | O=C(Nc1ccc(Cc2c[nH]c3ncccc23)cn1)c1ccccn1 [P-0107, Pyridine-2-carboxylic acid [5-(1H-pyrrolo[2,3-b]pyridin-3-ylmethyl)-pyridin-2-yl]-amide]
7 | < 1000 | O=C(c1ccc(NCc2ccc(C(F)(F)F)cc2)nc1)c1c[nH]c2ncccc12 [P-0017, (1H-Pyrrolo[2,3-b]pyridin-3-yl)-[6-(4-trifluoromethyl-benzylamino)-pyridin-3-yl]-methanone]
8 | < 1000 | COCCNc1ccc(Cc2c[nH]c3ncccc23)cn1 [P-0098, (2-Methoxy-ethyl)-[5-(1H-pyrrolo[2,3-b]pyridin-3-ylmethyl)-pyridin-2-yl]-amine]
9 | < 1000 | CCc1ccccc1CNc1ccc(Cc2c[nH]c3ncccc23)cn1 [P-0383, (2-Ethyl-benzyl)-[5-(1H-pyrrolo[2,3-b]pyridin-3-ylmethyl)-pyridin-2-yl]-amine]
10 | < 1000 | N#Cc1cnc2[nH]cc(Cc3ccc(NCc4ccccc4F)nc3)c2c1 [P-0271, 3-[6-(2-Fluoro-benzylamino)-pyridin-3-ylmethyl]-1H-pyrrolo[2,3-b]pyridine-5-carbonitrile]
11 | < 1000 | Fc1cccc(Cl)c1CNc1nc(Cl)c(Cc2c[nH]c3ncc(Cl)cc23)s1 [P-0243, [4-Chloro-5-(5-chloro-1H-pyrrolo[2,3-b]pyridin-3-ylmethyl)-thiazol-2-yl]-(2-chloro-6-fluoro-benzyl)-amine]
12 | < 1000 | Fc1ccc(CNc2ncc(Cc3c[nH]c4ncccc34)cn2)c(C(F)(F)F)c1 [P-0320, (4-Fluoro-2-trifluoromethyl-benzyl)-[5-(1H-pyrrolo[2,3-b]pyridin-3-ylmethyl)-pyrimidin-2-yl]-amine]
13 | < 1000 | Cc1ccccc1CNc1ccc(Cc2c[nH]c3ncccc23)cn1 [P-0217, (2-Methyl-benzyl)-[5-(1H-pyrrolo[2,3-b]pyridin-3-ylmethyl)-pyridin-2-yl]-amine]
14 | < 1000 | Cc1cc(F)ccc1CNc1ccc(Cc2c[nH]c3ncccc23)cn1 [P-0372, (4-Fluoro-2-methyl-benzyl)-[5-(1H-pyrrolo[2,3-b]pyridin-3-ylmethyl)-pyridin-2-yl]-amine]
15 | < 1000 | Cc1cccc(C(=O)Nc2ccc(Cc3c[nH]c4ncccc34)cn2)c1 [P-0122, 3-Methyl-N-[5-(1H-pyrrolo[2,3-b]pyridin-3-ylmethyl)-pyridin-2-yl]-benzamide]
16 | < 1000 | Fc1ccccc1CNc1nc(Cl)c(Cc2c[nH]c3ncc(Cl)cc23)s1 [P-0246, [4-Chloro-5-(5-chloro-1H-pyrrolo[2,3-b]pyridin-3-ylmethyl)-thiazol-2-yl]-(2-fluoro-benzyl)-amine]
17 | < 1000 | FC(F)(F)c1ccc(CNc2ccc(Cc3c[nH]c4ncc(Cl)cc34)c(Cl)n2)cn1 [P-0176, [6-Chloro-5-(5-chloro-1H-pyrrolo[2,3-b]pyridin-3-ylmethyl)-pyridin-2-yl]-(6-trifluoromethyl-pyridin-3-ylmethyl)-amine]
18 | < 1000 | Cn1c(CNc2ccc(Cc3c[nH]c4ncccc34)cn2)nc2ccccc21 [P-0218, (1-Methyl-1H-benzoimidazol-2-ylmethyl)-[5-(1H-pyrrolo[2,3-b]pyridin-3-ylmethyl)-pyridin-2-yl]-amine]
19 | < 1000 | Fc1cc(F)cc(CNc2ccc(Cc3c[nH]c4ncccc34)cn2)c1 [P-0356, (3,5-Difluoro-benzyl)-[5-(1H-pyrrolo[2,3-b]pyridin-3-ylmethyl)-pyridin-2-yl]-amine]
20 | < 1000 | Fc1ccc(Cl)c(CNc2ncc(Cc3c[nH]c4ncccc34)cn2)c1 [P-0407, (2-Chloro-5-fluoro-benzyl)-[5-(1H-pyrrolo[2,3-b]pyridin-3-ylmethyl)-pyrimidin-2-yl]-amine]

Row | IC50 [nM] | SMILES
21 | < 1000 | Cc1ccc(CNc2ccc(Cc3c[nH]c4ncccc34)cn2)c(F)c1 [P-0368, (2-Fluoro-4-methyl-benzyl)-[5-(1H-pyrrolo[2,3-b]pyridin-3-ylmethyl)-pyridin-2-yl]-amine]
22 | < 1000 | Clc1ccc(CNc2ccc(Cc3c[nH]c4ncccc34)c(Cl)n2)cc1 [P-0161, (4-Chloro-benzyl)-[6-chloro-5-(1H-pyrrolo[2,3-b]pyridin-3-ylmethyl)-pyridin-2-yl]-amine]
23 | < 1000 | COc1cc(C(=O)Nc2ccc(Cc3c[nH]c4ncccc34)cn2)ccn1 [P-0104, 2-Methoxy-N-[5-(1H-pyrrolo[2,3-b]pyridin-3-ylmethyl)-pyridin-2-yl]-isonicotinamide]
24 | < 1000 | COc1ncccc1CNc1ccc(Cc2c[nH]c3ncc(Cl)cc23)cn1 [P-0286, [5-(5-Chloro-1H-pyrrolo[2,3-b]pyridin-3-ylmethyl)-pyridin-2-yl]-(2-methoxy-pyridin-3-ylmethyl)-amine]
25 | < 1000 | CS(=O)(=O)c1ccc(CNc2ccc(Cc3c[nH]c4ncccc34)cn2)c(Cl)c1 [P-0387, (2-Chloro-4-methanesulfonyl-benzyl)-[5-(1H-pyrrolo[2,3-b]pyridin-3-ylmethyl)-pyridin-2-yl]-amine]
26 | < 1000 | c1csc(CNc2ccc(Cc3c[nH]c4ncccc34)cn2)c1 [P-0008, [5-(1H-pyrrolo[2,3-b]pyridin-3-ylmethyl)-pyridin-2-yl]-thiophen-2-ylmethyl-amine]
27 | < 1000 | Clc1ccc(CNc2ncc(Cc3c[nH]c4ncc(Cl)cc34)cn2)cc1 [P-0260, (4-Chloro-benzyl)-[5-(5-chloro-1H-pyrrolo[2,3-b]pyridin-3-ylmethyl)-pyrimidin-2-yl]-amine]
28 | < 1000 | c1cnc2[nH]cc(Cc3ccc(NCc4ccc(CN5CCOCC5)cc4)nc3)c2c1 [P-0093, (4-Morpholin-4-ylmethyl-benzyl)-[5-(1H-pyrrolo[2,3-b]pyridin-3-ylmethyl)-pyridin-2-yl]-amine]
29 | < 1000 | COc1cccc(CNc2nc(Cl)c(Cc3c[nH]c4ncc(Cl)cc34)s2)c1 [P-0193, [4-Chloro-5-(5-chloro-1H-pyrrolo[2,3-b]pyridin-3-ylmethyl)-thiazol-2-yl]-(3-methoxy-benzyl)-amine]
30 | < 1000 | Fc1c(Cl)cccc1CNc1ncc(Cc2c[nH]c3ncccc23)cn1 [P-0311, (3-Chloro-2-fluoro-benzyl)-[5-(1H-pyrrolo[2,3-b]pyridin-3-ylmethyl)-pyrimidin-2-yl]-amine]
31 | < 1000 | c1cnc2[nH]cc(Cc3ccc(NCCN4CCOCC4)nc3)c2c1 [P-0099, (2-Morpholin-4-yl-ethyl)-[5-(1H-pyrrolo[2,3-b]pyridin-3-ylmethyl)-pyridin-2-yl]-amine]
32 | < 1000 | Cc1nc(-c2ccc(C(F)(F)F)cc2)sc1Cn1nc(C)c(Cc2c[nH]c3ncccc23)c1C [P-0143, 3-{3,5-Dimethyl-1-[4-methyl-2-(4-trifluoromethyl-phenyl)-thiazol-5-ylmethyl]-1H-pyrazol-4-ylmethyl}-1H-pyrrolo[2,3-b]pyridine]
33 | < 1000 | Fc1ccc(C(F)(F)F)cc1CNc1ncc(Cc2c[nH]c3ncccc23)cn1 [P-0291, (2-Fluoro-5-trifluoromethyl-benzyl)-[5-(1H-pyrrolo[2,3-b]pyridin-3-ylmethyl)-pyrimidin-2-yl]-amine]
34 | < 1000 | O=C(Nc1ccc(Cc2c[nH]c3ncccc23)cn1)c1ccc(Cl)c(Cl)c1 [P-0100, 3,4-Dichloro-N-[5-(1H-pyrrolo[2,3-b]pyridin-3-ylmethyl)-pyridin-2-yl]-benzamide]
35 | < 1000 | Cc1ccc(F)cc1C(=O)Nc1ccc(Cc2c[nH]c3ncccc23)cn1 [P-0118, 5-Fluoro-2-methyl-N-[5-(1H-pyrrolo[2,3-b]pyridin-3-ylmethyl)-pyridin-2-yl]-benzamide]
36 | < 1000 | COc1ccc(CNc2nc(Cl)c(Cc3c[nH]c4ncc(Cl)cc34)s2)cn1 [P-0190, [4-Chloro-5-(5-chloro-1H-pyrrolo[2,3-b]pyridin-3-ylmethyl)-thiazol-2-yl]-(6-methoxy-pyridin-3-ylmethyl)-amine]
37 | < 1000 | c1ccc(N2CCOCC2)c(CNc2ccc(Cc3c[nH]c4ncccc34)cn2)c1 [P-0358, (2-Morpholin-4-yl-benzyl)-[5-(1H-pyrrolo[2,3-b]pyridin-3-ylmethyl)-pyridin-2-yl]-amine]
38 | < 1000 | Cc1nc(-c2ccccc2)sc1Cn1nc(C)c(Cc2c[nH]c3ncccc23)c1C [P-0144, 3-[3,5-Dimethyl-1-(4-methyl-2-phenyl-thiazol-5-ylmethyl)-1H-pyrazol-4-ylmethyl]-1H-pyrrolo[2,3-b]pyridine]
39 | < 1000 | Cn1nc(NCc2ccc(F)cc2)cc1Cc1c[nH]c2ncc(Cl)cc12 [P-0170, [5-(5-Chloro-1H-pyrrolo[2,3-b]pyridin-3-ylmethyl)-1-methyl-1H-pyrazol-3-yl]-(4-fluoro-benzyl)-amine]
40 | < 1000 | COc1ccc(CNc2ccc(Cc3c[nH]c4ncc(F)cc34)cn2)cn1 [P-0331, [5-(5-Fluoro-1H-pyrrolo[2,3-b]pyridin-3-ylmethyl)-pyridin-2-yl]-(6-methoxy-pyridin-3-ylmethyl)-amine]
